Measurements published in ChEMBL document CHEMBL3352739, “Comparative in vivo evaluation of polyalkoxy substituted 4H-chromenes and oxa-podophyllotoxins as microtubule destabilizing agents in the phenotypic sea urchin embryo assay” (2014).

Key:
[1] = tested on: CAKI-1; test: Growth inhibition of human CAKI-1 cells after 48 hrs by sulforhodamine B assay; assay type: functional; settings: CAKI-1, 48 h
[2] = tested on: SN12C; test: Growth inhibition of human SN12C cells after 48 hrs by sulforhodamine B assay; assay type: functional
[3] = Growth inhibition of human OVCAR5 cells after 48 hrs by sulforhodamine B assay; assay type: functional; settings: OVCAR-5, 48 h
[4] = tested on: T47D; test: Growth inhibition of human T47D cells after 48 hrs by sulforhodamine B assay; assay type: functional
[5] = tested on: Paracentrotus lividus; test: Antimitotic microtubule destabilizing activity in Paracentrotus lividus L embryos assessed as induction of embryo spinning
[6] = Growth inhibition of human SF295 cells after 48 hrs by sulforhodamine B assay; assay type: functional; settings: SF-295, 48 h
[7] = Growth inhibition of human UACC62 cells after 48 hrs by sulforhodamine B assay; assay type: functional; settings: UACC-62, 48 h
[8] = tested on: 786-0; test: Growth inhibition of human 786-0 cells after 48 hrs by sulforhodamine B assay; assay type: functional; settings: 786-0, 48 h
[9] = Growth inhibition of human LOXIMVI cells after 48 hrs by sulforhodamine B assay; assay type: functional; settings: LOX IMVI
[10] = Growth inhibition of human HCT116 cells after 48 hrs by sulforhodamine B assay; assay type: functional; settings: HCT-116, 48 h
[11] = tested on: NCI-H460; test: Growth inhibition of human NCI-H460 cells after 48 hrs by sulforhodamine B assay; assay type: functional; settings: NCI-H460, 48 h
[12] = tested on: SNB-19; test: Growth inhibition of human SNB19 cells after 48 hrs by sulforhodamine B assay; assay type: functional; settings: SNB-19, 48 h
[13] = tested on: HOP-62; test: Growth inhibition of human HOP62 cells after 48 hrs by sulforhodamine B assay; assay type: functional; settings: HOP-62, 48 h
[14] = Growth inhibition of human Hs 578T cells after 48 hrs by sulforhodamine B assay; assay type: functional
[15] = tested on: SK-OV-3; test: Growth inhibition of human SKOV3 cells after 48 hrs by sulforhodamine B assay; assay type: functional; settings: SK-OV-3, 48 h
[16] = tested on: Malme-3M; test: Growth inhibition of human MALME-3M cells after 48 hrs by sulforhodamine B assay; assay type: functional
[17] = tested on: A549; test: Growth inhibition of human A549/ATCC cells after 48 hrs by sulforhodamine B assay; assay type: functional; settings: A549, 48 h
[18] = tested on: HT-29; test: Growth inhibition of human HT-29 cells after 48 hrs by sulforhodamine B assay; assay type: functional; settings: HT-29, 48 h
[19] = tested on: Paracentrotus lividus; test: Antimitotic microtubule destabilizing activity in Paracentrotus lividus L embryos assessed as induction of cleavage arrest
[20] = tested on: SNB-75; test: Growth inhibition of human SNB75 cells after 48 hrs by sulforhodamine B assay; assay type: functional; settings: SNB-75, 48 h
[21] = tested on: IGROV-1; test: Growth inhibition of human IGROV1 cells after 48 hrs by sulforhodamine B assay; assay type: functional; settings: IGROV-1, 48 h
[22] = Growth inhibition of human OVCAR4 cells after 48 hrs by sulforhodamine B assay; assay type: functional; settings: OVCAR-4, 48 h
[23] = Growth inhibition of human RPMI8226 cells after 48 hrs by sulforhodamine B assay; assay type: functional; settings: RPMI-8226, 48 h
[24] = tested on: NCI-H522; test: Growth inhibition of human NCI-H522 cells after 48 hrs by sulforhodamine B assay; assay type: functional; settings: NCI-H522, 48 h
[25] = Growth inhibition of human HCC2998 cells after 48 hrs by sulforhodamine B assay; assay type: functional; settings: HCC 2998, 48 h
[26] = tested on: NCI-H322M; test: Growth inhibition of human NCI-H322M cells after 48 hrs by sulforhodamine B assay; assay type: functional
[27] = tested on: HL-60(TB); test: Growth inhibition of human HL-60(TB) cells after 48 hrs by sulforhodamine B assay; assay type: functional; settings: HL-60, 48 h
[28] = tested on: TK-10; test: Growth inhibition of human TK10 cells after 48 hrs by sulforhodamine B assay; assay type: functional; settings: TK-10, 48 h
[29] = Growth inhibition of human MOLT4 cells after 48 hrs by sulforhodamine B assay; assay type: functional; settings: MOLT-4, 48 h
[30] = tested on: A498; test: Growth inhibition of human A498 cells after 48 hrs by sulforhodamine B assay; assay type: functional; settings: A498, 48 h
[31] = tested on: MDA-MB-231; test: Growth inhibition of human MDA-MB-231 cells after 48 hrs by sulforhodamine B assay; assay type: functional; settings: MDA-MB-231, 48 h
[32] = tested on: CCRF-CEM; test: Growth inhibition of human CCRF-CEM cells after 48 hrs by sulforhodamine B assay; assay type: functional
[33] = Growth inhibition of human SF539 cells after 48 hrs by sulforhodamine B assay; assay type: functional; settings: SF-539, 48 h
[34] = Growth inhibition of human EKVX cells after 48 hrs by sulforhodamine B assay; assay type: functional
[35] = tested on: DU-145; test: Growth inhibition of human DU145 cells after 48 hrs by sulforhodamine B assay; assay type: functional; settings: DU-145, 48 h
[36] = tested on: M14; test: Growth inhibition of human M14 cells after 48 hrs by sulforhodamine B assay; assay type: functional; settings: M14, 48 h
[37] = Growth inhibition of human BT549 cells after 48 hrs by sulforhodamine B assay; assay type: functional; settings: BT-549, 48 h
[38] = Growth inhibition of human RXF393 cells after 48 hrs by sulforhodamine B assay; assay type: functional; settings: RXF 393, 48 h
[39] = tested on: SR; test: Growth inhibition of human SR cells after 48 hrs by sulforhodamine B assay; assay type: functional
[40] = Growth inhibition of human OVCAR3 cells after 48 hrs by sulforhodamine B assay; assay type: functional; settings: OVCAR-3, 48 h
[41] = Growth inhibition of human HCT15 cells after 48 hrs by sulforhodamine B assay; assay type: functional; settings: HCT-15, 48 h
[42] = Growth inhibition of human UACC257 cells after 48 hrs by sulforhodamine B assay; assay type: functional; settings: UACC-257, 48 h
[43] = tested on: NCI-H226; test: Growth inhibition of human NCI-H226 cells after 48 hrs by sulforhodamine B assay; assay type: functional; settings: NCI-H226, 48 h
[44] = tested on: SK-MEL-28; test: Growth inhibition of human SK-MEL-28 cells after 48 hrs by sulforhodamine B assay; assay type: functional; settings: SK-MEL-28, 48 h
[45] = tested on: SF-268; test: Growth inhibition of human SF268 cells after 48 hrs by sulforhodamine B assay; assay type: functional; settings: SF-268, 48 h
[46] = tested on: NCI-H23; test: Growth inhibition of human NCI-H23 cells after 48 hrs by sulforhodamine B assay; assay type: functional; settings: NCI-H23, 48 h
[47] = Growth inhibition of human PC3 cells after 48 hrs by sulforhodamine B assay; assay type: functional; settings: PC-3, 48 h
[48] = tested on: KM12; test: Growth inhibition of human KM12 cells after 48 hrs by sulforhodamine B assay; assay type: functional; settings: KM12, 48 h
[49] = tested on: SW-620; test: Growth inhibition of human SW620 cells after 48 hrs by sulforhodamine B assay; assay type: functional; settings: SW-620, 48 h
[50] = Growth inhibition of human OVCAR8 cells after 48 hrs by sulforhodamine B assay; assay type: functional; settings: OVCAR-8, 48 h
[51] = tested on: MDA-MB-435; test: Growth inhibition of human MDA-MB-435 cells after 48 hrs by sulforhodamine B assay; assay type: functional; settings: MDA-MB-435, 48 h
[52] = Cytotoxicity against human NCI60 cells; assay type: functional
[53] = tested on: SK-MEL-2; test: Growth inhibition of human SK-MEL-2 cells after 48 hrs by sulforhodamine B assay; assay type: functional; settings: SK-MEL-2, 48 h
[54] = tested on: U-251; test: Growth inhibition of human U251 cells after 48 hrs by sulforhodamine B assay; assay type: functional; settings: U-251, 48 h
[55] = tested on: SK-MEL-5; test: Growth inhibition of human SK-MEL-5 cells after 48 hrs by sulforhodamine B assay; assay type: functional; settings: SK-MEL-5, 48 h
[56] = Growth inhibition of human UO31 cells after 48 hrs by sulforhodamine B assay; assay type: functional; settings: UO-31, 48 h
[57] = tested on: Paracentrotus lividus; test: Antimitotic microtubule destabilizing activity in Paracentrotus lividus L embryos assessed as induction of cleavage alteration
[58] = tested on: MCF7; test: Growth inhibition of human MCF7 cells after 48 hrs by sulforhodamine B assay; assay type: functional; settings: MCF7, 48 h
[59] = tested on: MDA-MB-468; test: Growth inhibition of human MDA-MB-468 cells after 48 hrs by sulforhodamine B assay; assay type: functional; settings: MDA-MB-468, 48 h
[60] = Growth inhibition of human NCI-ADR-RES cells after 48 hrs by sulforhodamine B assay; assay type: functional
[61] = Growth inhibition of human COLO205 cells after 48 hrs by sulforhodamine B assay; assay type: functional; settings: COLO 205, 48 h

COc1cccc(C2C(C#N)=C(N)Oc3cc4c(cc32)OCO4)c1 (stereo unspecified)
GI50 [1]: 40.9 nM | GI50 [2]: 79.2 nM | GI50 [3]: 447 nM | GI50 [4]: 50.2 nM | EC [5]: 0.2 µM | GI50 [6]: 34.4 nM | GI50 [7]: 43.4 nM | GI50 [8]: 58.7 nM | GI50 [9]: 46 nM | GI50 [10]: 49.8 nM | GI50 [11]: 44 nM | GI50 [12]: 54.3 nM | GI50 [13]: 43.2 nM | GI50 [14]: 31.6 nM | GI50 [15]: 36.2 nM | GI50 [16]: 50.1 nM | GI50 [17]: 62.5 nM | GI50 [18]: 46.2 nM | EC [19]: 0.05 µM | GI50 [20]: 23.8 nM | GI50 [21]: 97.3 nM | GI50 [22]: 2510 nM | GI50 [23]: 105 nM | GI50 [24]: 23.1 nM | GI50 [25]: 101 nM | GI50 [26]: 2110 nM | GI50 [27]: 24.2 nM | GI50 [28]: 6010 nM | GI50 [29]: 6.17 nM | GI50 [30]: 29.1 nM | GI50 [31]: 2170 nM | GI50 [32]: 36 nM | GI50 [33]: 34.4 nM | GI50 [34]: 259 nM | GI50 [35]: 84.5 nM | GI50 [36]: 54.9 nM | GI50 [37]: 87.4 nM | GI50 [38]: 29 nM | GI50 [39]: 30.2 nM | GI50 [40]: 25.6 nM | GI50 [41]: 44.7 nM | GI50 [42]: 47.1 nM | GI50 [43]: 45.5 nM | GI50 [44]: 70 nM | GI50 [45]: 54.1 nM | GI50 [46]: 97.7 nM | GI50 [47]: 65.6 nM | GI50 [48]: 36.5 nM | GI50 [49]: 36.5 nM | GI50 [50]: 97.1 nM | GI50 [51]: 20.3 nM | GI50 [52]: 65 nM | GI50 [53]: 30.1 nM | GI50 [54]: 46.2 nM | GI50 [55]: 37.8 nM | GI50 [56]: 58.9 nM | EC [57]: 0.005 µM | GI50 [58]: 36.4 nM | GI50 [59]: 25.4 nM | GI50 [60]: 30.2 nM | GI50 [61]: 43.2 nM
